In brackets after ≈: the same amount, converted by molar mass. Entries after “also recorded” stand apart in the source; their conditions may differ. Structures can show the parent of a compound that is named as a salt. Where two headings read alike, the source gives them in different places.
Legend:
[1] = test system: thiol protease, especially calcium-activated neutral protease (CANP); conditions: cited from earlier work
breast cancer cell lines = assay: Cancer cell death assay (LDH release), breast lines; type: cell-based, human; conditions: compound alone, 24 hours
Method: (§1) 1. Cancer Cell Death Assay
(§2) Cell death was measured quantitatively by the release of a marker intracellular enzyme, lactate dehydrogenase (LDH), from damaged or killed cells. LDH released into the extracellular fluid, was measured 24 hours after drug exposure to cancer cells and the enzyme activity was determined by the method of Decker et al. (J. Immunolog Methods 15:61-99, 1988).
(§3) All cell lines used in the present study were obtained from the American Type Tissue Culture Laboratory and cultured according to their specifications. All were human cancer lines unless otherwise noted. The following cell lines and their tissue of origin used in our studies were:
(§4) The first assays performed measured the anti-neoplastic activity of NCO-700, alone, in cell death assays of a wide variety of human cancer cells. The results of these experiments are shown in FIGS. 1-6, where a dose-response curve of NCO-700 versus % LDH release is plotted, with higher values of LDH released indicating greater anti-neoplastic activity (apoptosis).
(§5) In FIG. 8, a dose-response curve is shown of the effect of TOP-008 on the killing of breast, prostate and colon cell lines.

[2] = test system: prostate cancer cell lines; assay: Cancer cell death assay (LDH release), prostate lines; type: cell-based, human; conditions: compound alone, 24 hours
Method: as §1, §2, §3, §4, §5

colon cancer cell lines = assay: Cancer cell death assay (LDH release), colon lines; type: cell-based, human; conditions: compound alone, 24 hours
Method: as §1, §2, §3, §4, §5

HS-578T (breast) [3] = assay: Cancer cell death assay (LDH release), HS-578T; type: cell-based, human
Method: as §1, §2
A series of analogs related to NCO-700 were assayed in the cancer cell death assay. […] It should be stressed that these analogs were tested alone, without any added chemotherapeutic agent.
Based on Experiment 1 above, the anti-cancer activity of NCO-700, TOP-008, and analogs, TOP-201, 202, 203, 204, 205, 206, 207, and 007, was tested in cancer cell death assays of human cancer cell line HS-578T. In FIGS. 34 (1,000 cells/well) and 35 (1,500 cells/well), a bar graph indicates the activity of a particular analog as measured by the % LDH released (DMSO, dimethyl sulfoxide=control), with higher values of LDH released indicating greater anti-neoplastic activity. All analogs were tested at a concentration of 25 μM.

[4] = test system: pancreatic cancer cell lines ASPC-1 and HS-766T; assay: Cancer cell death assay (LDH release), pancreatic lines; type: cell-based, human; conditions: 25 μM, 24 hours
Method: as §2
As described in Experiment 1, the cancer cell death assays were performed to measure anti-neoplastic activity of the compounds, NCO-700, TOP-001, TOP-003, TOP-005, TOP-006, TOP-008, TOP-009, TOP-010, TOP-012, TOP-013, TOP-015, and TOP-017.
The following cell lines were obtained from the American Type Tissue Culture Laboratory and cultured according to their specifications: Human pancreatic cancer cell lines ASPC-1 and HS-766T.
The results of the experiments are shown in FIG. 32, where a bar graph indicates the activity of a particular analog as measured by the % LDH release stimulated by each analog for 24 hours, with higher values of LDH released indicating greater anti-neoplastic activity (apoptosis). All analogs were tested at a concentration of 25 μM.

WIDR (colon) = assay: Cancer cell survival assay, WIDR; type: cell-based, human; conditions: FIG. 16 versus FIG. 31
Method: (§6) Cell survival was assayed in cultured tumor cells. From 500-1000 cells per well were plated in 24-welled culture dishes and exposed to drug for seven days. After drug exposure, a computerized cell imaging technique was utilized to ascertain the number of viable cells remaining in each culture. From the data, survival curves were plotted and a ED50 (drug concentration that permits 50% cell survival) were calculated.
The cancer cell survival assay is an important additional in vitro assay to assess the anti-neoplastic activity of compounds as the cells are given a prolonged exposure (seven days) to the drug. FIGS. 9-16 show the effect of increasing the dose of NCO-700 on the survival of a number of cancer cell lines. […] In the figures, the vertical axis is the object area, which is the number of surviving cancer cells calculated by a computer.
(§7) FIGS. 26-31 show the effect of increasing the dose of TOP-008 against a number of cancer cell lines. […] For example, if the activity of NCO-700 and TOP-008 are compared against the human colon cancer cell line WIDR (FIG. 16 in Experiment 1 versus FIG. 31) it is seen that the effective dose of TOP-008 is much lower in this particular assay.

HS-578T (breast) [5] = assay: Apoptosis detection assay (annexin V / propidium iodide, flow cytometry); type: cell-based, human; conditions: 50 μM and 25 μM (FIG. 36)
Method: Anti-neoplastic activity of TOP-008 was tested using a commercially available kit, Apoptosis Detection Kit, from R & D SYSTEMS (Minnesota) in which annexin V, a member of the calcum and phospholipid binding proteins, is used to detect apoptosis, following the protocol recommended by the manufacturer. TOP-008 was tested at a concentration of 50 μM, using Human breast cancer cell line HS-578T. Cells were washed in cold PBS twice and resuspended in a small volume of 1× binding buffer. Fluorescein-labeled annexin V and propidium iodide were added to the cells. The cells expressing phosphatidylserine on the outer leaflet of cell membranes bind annexin V and cells with a compromised cell membrane allow propidium iodide to bind to the cellular DNA. The resulting cells when immediately analyzed by flow cytometry can present three potential populations of cells: live cells which will not stain with either fluorochrome, necrotic cells which will stain with both fluorochrome, and cells undergoing apoptosis which will stain only with the annexin V-FITC reagent. Analysis was performed on cytometers equipped with a single laser emitting excitation light at 488 nm. The annexin V-FITC-generated signal was detected in the FITC signal detector (FL1). The results are shown in FIG. 36 in which the […]. […]

[6] = test system: PC-3 (prostate tumor cell line); assay: Apoptosis induced DNA fragmentation (agarose gel); type: cell-based, human; conditions: PC-3, 25 μM, 48 hours
Method: PC-3, a prostate tumor cell line, was treated with 25 μM TOP-008, 50 μM NCO-700, or water for 48 hours. The DNA from each sample was purified by phenol extraction, and the fragmentation was resolved on an agarose gel.

cancer cell lines = assay: Cancer cell survival assay, a number of cancer cell lines; type: cell-based, human; conditions: FIGS. 26-31, alone
Method: as §6, §7

KB-V-1 (resistant cells) = assay: Drug accumulation assay ([3H]-vinblastine), resistant cells; type: cell-based, human
Method: (§8) 1. Drug Accumulation Assays
(§9) where the effect of NCO-700 on the uptake of radioactive (^3 H)-vinblastine, an anticancer drug, is measured in cultured cancer cells, that are both drug-resistant and drug-sensitive (Reference 3).
(§10) In the first two in vitro assays, the drug accumulation assay and the cell survival assay, a human pharyngeal carcinoma cell line (KB-V-1) which is highly resistant to anticancer drugs was used. This cell line was developed by Drs. Ira Pastan and Michael Gottesman of the National Cancer Institute, by step-wise selection in colchicine of drug-resistant cells. The control cancer cell line (KB-3), from which the resistant cell lines were derived, is sensitive to anticancer drugs.
Measurement of [^3 H]-vinblastine accumulation was performed by the methods developed in the laboratory of Drs. […] In this method, KB-V-1 and KB-3 cells were plated in 10% fetal bovine serum at a density of 3×10^5 cells per well in 24-well Costar plates. The next day, the growth medium was replaced with Dulbecco's modified Eagle's medium with or without (control cells) 20 μM NCO-700. After ten minutes, the medium was removed and replaced with assay medium (0.5 ml) containing 0.1 μCi, (13 pmol) [^3 H]-vinblastine in the presence or absence of 20 μM NCO-700. After an additional 30 min, the medium was removed, the plates were washed three times in ice-cold phosphate-buffered saline, the cells were detached with trypsin, and radioactivity determined by scintillation counting.

KB-3 (sensitive cells) = assay: Drug accumulation assay ([3H]-vinblastine), sensitive cells; type: cell-based, human; conditions: KB-3, control (vinblastine alone)
Method: as §8, §9
as §10, with “drugs. The resistant KB-V-1 cell line is approximately 275 times more resistant to vinblastine than the sensitive KB-3 line and has a greatly amplified mdr gene which generates the observed resistance.” for “drugs.”
Measurement of [^3 H]-vinblastine accumulation was performed by the methods developed in the laboratory of Drs. Gottesman and Pastan (Fojo et al., Cancer Res. 45:3002-3007, 1985). […] After an additional 30 min, the medium was removed, the plates were washed three times in ice-cold phosphate-buffered saline, the cells were detached with trypsin, and radioactivity determined by scintillation counting.

KB-3 (sensitive) = assay: Cell survival assay with vinblastine, sensitive cells; type: cell-based, human; conditions: Homo sapiens, read-out: vinblastine to kill 50% of cells
Method: (§11) where the effect of NCO-700 to enhance cancer cell killing by vinblastine was measured.
as §10, with “drugs. The resistant KB-V-1 cell line is approximately 275 times more resistant to vinblastine than the sensitive KB-3 line and has a greatly amplified mdr gene which generates the observed resistance.” for “drugs.”
(§12) The cell survival experiments shown above were performed by plating KB-3 (sensitive) and KB-V-1 (resistant) cells in 32 mm well plastic dishes at a cell density of 300-500 cells per well. Vinblastine and NCO-700 were added 16 hours after the initial cell plating. After 10 days of incubation at 37°, cell colonies were stained and counted.

KB-V-1 (resistant) [7] = assay: Cell survival assay with vinblastine, resistant cells; type: cell-based, human; conditions: Homo sapiens
Method: as §11
as §10, with “drugs. The resistant KB-V-1 cell line is approximately 275 times more resistant to vinblastine than the sensitive KB-3 line and has a greatly amplified mdr gene which generates the observed resistance.” for “drugs.”
as §12

KB-V-1 (resistant) [8] = conditions: cited from earlier work
[9] = in vivo; cited from earlier work

For CCOC(=O)[C@H]1O[C@@H]1C(=O)N[C@@H](CC(C)C)C(=O)NCCC(C)C [EST], the “thiol protease inhibitory activity” value [1] is listed as “thiol protease inhibitory activity, especially calcium-activated neutral protease (CANP) inhibitory activity”.

In the case of CCOC(=O)[C@@H]1O[C@H]1C(=O)N[C@@H](CC(C)C)C(=O)N1CCN(C/C=C/c2ccccc2)CC1 [TOP-008, Bis[ethyl (2R,3R)-3-[(S)-3-methyl-1-[4-(3-phenyl-2-propenyl)piperazin-1-ylcarbonyl]butylcarbamoyl]oxirane-2-carboxylate] Sulfate], the “anti-neoplastic activity (LDH release)” value (breast cancer cell lines) is reported as “excellent activity”, the “anti-neoplastic activity (LDH release)” value [2] is reported as “excellent activity” and the “anti-neoplastic activity (LDH release)” value (colon cancer cell lines) is reported as “excellent activity”. For the same compound, the “anti-neoplastic activity (% LDH released)” value (HS-578T (breast) [3]; HS-578T, 25 μM, 1,000 and 1,500 cells/well (FIGS. 34, 35)) was “very good anti-neoplastic activity”, the “kill rate of breast cancer cells relative to NCO-700” value (HS-578T (breast) [3]; HS-578T, alone) was “approximately three-fold” and the “anti-neoplastic activity (LDH release) / potency compared to NCO-700” value (HS-578T (breast) [3]; HS-578T, dose response (FIG. 7), alone) was “higher potency; also recorded: highest potency”. For the same compound, the “anti-neoplastic potency relative to NCO-700” value (HS-578T (breast) [3]; conclusion of Experiment 1) was “three-fold”, the “anti-neoplastic activity (% LDH release) compared with NCO-700” value [4] was “significantly greater activity than NCO-700 itself” and the “effective dose compared with NCO-700” value (WIDR (colon)) was “much lower”. The induction of apoptosis (HS-578T (breast) [5]) was “induced apoptosis in human breast cancer cells”, the DNA fragmentation [6] was “significant DNA fragmentation” and the “anti-neoplastic activity (cell survival)” value (cancer cell lines) was “highly active anti-neoplastic agent (apoptosis agent) and in some cases is much more active than NCO-700”.

In the case of CC[C@]1(O)C[C@@H]2CN(CCc3c([nH]c4ccccc34)[C@@](C(=O)OC)(c3cc4c(cc3OC)N(C)[C@H]3[C@@](O)(C(=O)OC)[C@H](OC(C)=O)[C@]5(CC)C=CCN6CC[C@]43[C@@H]65)C2)C1 [vinblastine, reference compound], the vinblastine accumulation (KB-V-1 (resistant cells); KB-V-1, control (vinblastine alone)) is reported as 0.29 ± 0.03 pmole vinblastine/mg protein, the “accumulation of vinblastine (in words)” value (KB-V-1 (resistant cells); drug-resistant cell line) is reported as “severely restricted” and the vinblastine accumulation (KB-3 (sensitive cells)) is reported as 2.99 ± 0.12 pmole vinblastine/mg protein. For the same compound, the IC50 (KB-3 (sensitive)) was 0.0032 µg/mL (≈ 0.00395 µM), the IC50 (KB-V-1 (resistant) [7]; KB-V1, read-out: level of vinblastine needed to kill 50% of the tumor cells) was 0.825 µg/mL (≈ 1.02 µM) and the IC50 (KB-V-1 (resistant) [7]; KB-V1, read-out: vinblastine to kill 50% of cells) was 0.792 µg/mL (≈ 0.977 µM). The “resistance to vinblastine, KB-V-1 versus KB-3” value (KB-V-1 (resistant) [8]) was “approximately 275 times” and the side effects [9] was “inevitable side effects such as hair loss, weight loss, and liver and kidney damage”.

Source: US6054437A, “Method for inducing death of neoplastic cells using piperazine derivatives” (Hitachi Chemical Research Center, Inc., priority 1997, dated 2000)
